In ChEMBL document CHEMBL3991601, “The target landscape of clinical kinase drugs” (Science, 2017) one finds Kd data, which are given here for 9 compounds.

Active and inactive are the calls of the source. For most assays here, no stated cut-off is given here; in the data, actives have a measured Kd and inactives only a lower limit.

Targets include Aurora kinase B (Homo sapiens, UniProt Q96GD4); Midasin (Homo sapiens, UniProt Q9NU22); TGF-beta receptor type-2 (Homo sapiens, UniProt P37173).
For assay [1], the target named is T1, Peroxisomal acyl-coenzyme A oxidase 1 (Homo sapiens, UniProt Q15067).
T1 sequence (Q15067 whole entry): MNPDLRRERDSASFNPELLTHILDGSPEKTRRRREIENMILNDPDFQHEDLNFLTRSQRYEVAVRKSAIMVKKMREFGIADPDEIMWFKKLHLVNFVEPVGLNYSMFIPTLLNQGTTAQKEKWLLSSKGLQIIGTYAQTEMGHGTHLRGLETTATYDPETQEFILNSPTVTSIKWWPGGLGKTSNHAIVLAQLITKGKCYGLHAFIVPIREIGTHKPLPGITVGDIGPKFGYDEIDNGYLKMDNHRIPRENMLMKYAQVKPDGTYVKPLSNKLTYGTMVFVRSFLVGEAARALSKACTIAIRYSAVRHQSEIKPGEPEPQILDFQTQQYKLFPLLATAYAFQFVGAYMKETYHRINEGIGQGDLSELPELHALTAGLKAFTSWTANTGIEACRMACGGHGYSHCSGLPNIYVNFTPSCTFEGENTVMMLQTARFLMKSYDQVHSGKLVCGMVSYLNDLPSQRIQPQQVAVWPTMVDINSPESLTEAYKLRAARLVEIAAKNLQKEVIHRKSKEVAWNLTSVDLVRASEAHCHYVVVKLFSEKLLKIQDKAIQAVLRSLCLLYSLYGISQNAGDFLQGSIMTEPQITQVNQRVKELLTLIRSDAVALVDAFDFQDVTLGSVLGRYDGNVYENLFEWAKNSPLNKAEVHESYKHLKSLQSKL

A further assay concerns the target T2, Activin receptor type-1 (Homo sapiens, UniProt Q04771).
T2 sequence (Q04771 whole entry): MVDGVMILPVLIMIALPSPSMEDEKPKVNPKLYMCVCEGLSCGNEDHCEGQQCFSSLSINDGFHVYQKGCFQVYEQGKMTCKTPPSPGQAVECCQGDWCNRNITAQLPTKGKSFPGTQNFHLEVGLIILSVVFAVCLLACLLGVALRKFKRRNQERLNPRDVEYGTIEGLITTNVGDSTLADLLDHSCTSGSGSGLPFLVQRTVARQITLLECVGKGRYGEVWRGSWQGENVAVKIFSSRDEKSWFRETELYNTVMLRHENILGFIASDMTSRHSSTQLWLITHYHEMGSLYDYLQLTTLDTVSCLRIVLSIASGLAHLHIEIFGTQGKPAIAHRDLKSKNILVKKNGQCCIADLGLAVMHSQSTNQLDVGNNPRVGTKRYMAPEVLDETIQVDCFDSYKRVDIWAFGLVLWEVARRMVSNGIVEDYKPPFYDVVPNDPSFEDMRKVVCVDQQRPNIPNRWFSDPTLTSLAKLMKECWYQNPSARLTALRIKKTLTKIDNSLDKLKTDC

The next assay addresses T3, Activin receptor type-1B (Homo sapiens, UniProt P36896).
T3 sequence (P36896 whole entry): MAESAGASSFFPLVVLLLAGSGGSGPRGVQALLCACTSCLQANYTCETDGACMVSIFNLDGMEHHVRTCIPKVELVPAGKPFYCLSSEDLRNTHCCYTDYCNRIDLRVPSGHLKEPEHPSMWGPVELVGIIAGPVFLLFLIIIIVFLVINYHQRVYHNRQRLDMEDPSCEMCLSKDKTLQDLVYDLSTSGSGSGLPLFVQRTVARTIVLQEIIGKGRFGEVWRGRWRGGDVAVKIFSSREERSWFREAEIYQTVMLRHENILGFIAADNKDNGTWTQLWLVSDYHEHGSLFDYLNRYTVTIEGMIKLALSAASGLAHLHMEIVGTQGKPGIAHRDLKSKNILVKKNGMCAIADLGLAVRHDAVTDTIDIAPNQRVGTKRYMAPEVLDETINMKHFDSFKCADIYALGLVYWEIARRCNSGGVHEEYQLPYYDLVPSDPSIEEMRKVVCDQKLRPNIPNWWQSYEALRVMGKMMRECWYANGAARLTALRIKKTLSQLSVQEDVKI

Assay [2] deals with Glycogen synthase kinase-3 beta (Homo sapiens, UniProt P49841).
Assay [3] addresses Tyrosine-protein kinase HCK (Homo sapiens, UniProt P08631).
In assay [4] the target is Mitogen-activated protein kinase 3 (Homo sapiens, UniProt P27361).
In assay [5] the target is MAP kinase-activated protein kinase 2 (Homo sapiens, UniProt P49137).
Assay [6] addresses MAP/microtubule affinity-regulating kinase 3 (Homo sapiens, UniProt P27448).
Assay [7] deals with cAMP-dependent protein kinase catalytic subunit beta (Homo sapiens, UniProt P22694).
Assay [8] addresses cAMP-dependent protein kinase catalytic subunit gamma (Homo sapiens, UniProt P22612).
The target in assay [9] is Ribosomal protein S6 kinase alpha-1 (Homo sapiens, UniProt Q15418).
Sequence of Ribosomal protein S6 kinase alpha-1 (Q15418 whole entry): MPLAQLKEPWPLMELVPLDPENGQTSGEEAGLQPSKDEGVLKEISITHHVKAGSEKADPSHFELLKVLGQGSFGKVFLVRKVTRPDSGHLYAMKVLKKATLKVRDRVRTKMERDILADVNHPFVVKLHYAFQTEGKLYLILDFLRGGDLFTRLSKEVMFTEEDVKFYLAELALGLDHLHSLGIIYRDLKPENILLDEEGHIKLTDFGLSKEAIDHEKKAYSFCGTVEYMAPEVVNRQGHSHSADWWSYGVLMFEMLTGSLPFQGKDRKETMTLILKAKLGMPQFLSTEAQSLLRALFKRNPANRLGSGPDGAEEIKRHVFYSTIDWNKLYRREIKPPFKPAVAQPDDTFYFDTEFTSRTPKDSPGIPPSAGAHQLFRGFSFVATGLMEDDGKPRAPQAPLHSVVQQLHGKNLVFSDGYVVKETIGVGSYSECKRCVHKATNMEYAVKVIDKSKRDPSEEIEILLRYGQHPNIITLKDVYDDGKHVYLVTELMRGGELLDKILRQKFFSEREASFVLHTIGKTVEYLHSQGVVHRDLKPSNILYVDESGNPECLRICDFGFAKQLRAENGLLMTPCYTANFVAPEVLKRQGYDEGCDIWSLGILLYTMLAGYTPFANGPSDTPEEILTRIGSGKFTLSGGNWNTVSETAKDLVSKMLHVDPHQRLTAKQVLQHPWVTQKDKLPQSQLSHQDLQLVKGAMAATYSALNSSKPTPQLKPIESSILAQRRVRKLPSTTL

Sequence of MAP kinase-activated protein kinase 2 (P49137 whole entry): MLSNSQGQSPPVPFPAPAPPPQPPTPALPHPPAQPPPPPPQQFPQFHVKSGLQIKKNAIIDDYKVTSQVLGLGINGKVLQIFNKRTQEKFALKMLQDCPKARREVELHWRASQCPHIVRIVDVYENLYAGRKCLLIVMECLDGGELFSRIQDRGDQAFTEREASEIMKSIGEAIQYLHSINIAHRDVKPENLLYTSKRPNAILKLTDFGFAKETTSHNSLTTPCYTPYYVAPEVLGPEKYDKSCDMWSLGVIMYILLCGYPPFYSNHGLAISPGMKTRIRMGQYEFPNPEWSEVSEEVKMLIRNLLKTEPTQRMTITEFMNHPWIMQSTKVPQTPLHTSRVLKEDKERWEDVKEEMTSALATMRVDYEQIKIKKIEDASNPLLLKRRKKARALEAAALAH
Sequence of TGF-beta receptor type-2 (P37173 whole entry): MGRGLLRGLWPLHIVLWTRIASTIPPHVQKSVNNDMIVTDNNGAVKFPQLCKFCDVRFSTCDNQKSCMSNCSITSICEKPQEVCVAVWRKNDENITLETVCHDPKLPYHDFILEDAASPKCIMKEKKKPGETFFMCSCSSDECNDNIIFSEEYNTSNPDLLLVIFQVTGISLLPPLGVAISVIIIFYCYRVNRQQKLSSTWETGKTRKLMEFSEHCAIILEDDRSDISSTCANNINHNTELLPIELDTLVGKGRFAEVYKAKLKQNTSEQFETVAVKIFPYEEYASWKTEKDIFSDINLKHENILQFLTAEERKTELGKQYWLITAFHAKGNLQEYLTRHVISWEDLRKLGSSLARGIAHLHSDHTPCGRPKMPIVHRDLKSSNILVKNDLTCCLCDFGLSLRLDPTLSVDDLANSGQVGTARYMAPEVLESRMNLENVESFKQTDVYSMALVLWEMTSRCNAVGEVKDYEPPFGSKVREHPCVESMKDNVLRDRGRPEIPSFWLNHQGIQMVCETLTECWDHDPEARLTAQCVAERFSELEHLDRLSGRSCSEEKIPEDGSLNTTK
Sequence of cAMP-dependent protein kinase catalytic subunit gamma (P22612 whole entry): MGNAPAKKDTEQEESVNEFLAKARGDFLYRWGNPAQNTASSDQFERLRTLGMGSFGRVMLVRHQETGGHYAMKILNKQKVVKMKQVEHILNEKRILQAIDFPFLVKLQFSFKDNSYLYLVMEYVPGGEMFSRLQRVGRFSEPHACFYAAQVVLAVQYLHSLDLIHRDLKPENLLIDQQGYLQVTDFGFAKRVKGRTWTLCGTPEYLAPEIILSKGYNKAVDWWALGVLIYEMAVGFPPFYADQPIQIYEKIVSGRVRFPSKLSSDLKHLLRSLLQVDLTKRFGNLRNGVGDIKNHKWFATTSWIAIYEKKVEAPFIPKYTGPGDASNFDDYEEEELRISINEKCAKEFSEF
Sequence of Glycogen synthase kinase-3 beta (P49841 whole entry): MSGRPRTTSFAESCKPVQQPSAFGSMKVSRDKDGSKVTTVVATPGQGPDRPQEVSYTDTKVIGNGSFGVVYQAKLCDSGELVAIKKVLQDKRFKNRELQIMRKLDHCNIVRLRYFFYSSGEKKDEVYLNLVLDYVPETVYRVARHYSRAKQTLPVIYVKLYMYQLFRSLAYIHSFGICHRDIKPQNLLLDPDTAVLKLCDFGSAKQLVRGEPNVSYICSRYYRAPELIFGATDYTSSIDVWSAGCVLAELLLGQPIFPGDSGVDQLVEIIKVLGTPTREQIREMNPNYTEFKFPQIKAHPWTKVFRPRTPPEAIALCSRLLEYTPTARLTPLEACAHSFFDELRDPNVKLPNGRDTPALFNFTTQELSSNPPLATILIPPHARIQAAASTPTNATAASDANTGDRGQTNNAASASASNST
Sequence of MAP/microtubule affinity-regulating kinase 3 (P27448 whole entry): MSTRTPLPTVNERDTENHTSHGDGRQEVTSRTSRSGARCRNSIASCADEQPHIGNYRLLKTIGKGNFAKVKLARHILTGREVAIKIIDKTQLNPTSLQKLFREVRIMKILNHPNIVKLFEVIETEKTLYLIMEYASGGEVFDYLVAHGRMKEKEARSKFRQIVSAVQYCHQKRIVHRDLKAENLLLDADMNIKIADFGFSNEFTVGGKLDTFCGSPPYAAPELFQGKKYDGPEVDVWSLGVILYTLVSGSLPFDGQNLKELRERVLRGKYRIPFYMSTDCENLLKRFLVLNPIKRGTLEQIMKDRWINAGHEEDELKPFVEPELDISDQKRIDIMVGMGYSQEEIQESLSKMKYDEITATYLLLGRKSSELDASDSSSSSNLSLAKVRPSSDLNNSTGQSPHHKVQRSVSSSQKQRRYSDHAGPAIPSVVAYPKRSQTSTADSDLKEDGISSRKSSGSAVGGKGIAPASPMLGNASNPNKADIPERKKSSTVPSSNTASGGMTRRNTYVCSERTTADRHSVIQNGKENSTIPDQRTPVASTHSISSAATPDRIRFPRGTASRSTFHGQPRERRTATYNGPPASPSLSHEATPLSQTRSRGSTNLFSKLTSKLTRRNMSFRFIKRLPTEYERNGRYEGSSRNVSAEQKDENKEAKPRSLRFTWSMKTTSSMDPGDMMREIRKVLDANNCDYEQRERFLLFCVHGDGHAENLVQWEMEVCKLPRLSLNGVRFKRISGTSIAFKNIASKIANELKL
Sequence of Aurora kinase B (Q96GD4 whole entry): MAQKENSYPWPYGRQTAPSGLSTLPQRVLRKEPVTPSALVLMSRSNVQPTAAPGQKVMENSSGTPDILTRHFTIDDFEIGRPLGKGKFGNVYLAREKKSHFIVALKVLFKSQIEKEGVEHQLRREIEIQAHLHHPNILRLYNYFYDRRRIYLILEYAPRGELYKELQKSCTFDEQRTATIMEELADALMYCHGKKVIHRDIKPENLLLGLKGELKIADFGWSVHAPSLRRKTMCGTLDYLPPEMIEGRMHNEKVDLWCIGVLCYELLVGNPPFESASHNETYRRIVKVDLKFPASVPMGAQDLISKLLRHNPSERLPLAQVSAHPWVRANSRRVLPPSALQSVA
Sequence of Tyrosine-protein kinase HCK (P08631 whole entry): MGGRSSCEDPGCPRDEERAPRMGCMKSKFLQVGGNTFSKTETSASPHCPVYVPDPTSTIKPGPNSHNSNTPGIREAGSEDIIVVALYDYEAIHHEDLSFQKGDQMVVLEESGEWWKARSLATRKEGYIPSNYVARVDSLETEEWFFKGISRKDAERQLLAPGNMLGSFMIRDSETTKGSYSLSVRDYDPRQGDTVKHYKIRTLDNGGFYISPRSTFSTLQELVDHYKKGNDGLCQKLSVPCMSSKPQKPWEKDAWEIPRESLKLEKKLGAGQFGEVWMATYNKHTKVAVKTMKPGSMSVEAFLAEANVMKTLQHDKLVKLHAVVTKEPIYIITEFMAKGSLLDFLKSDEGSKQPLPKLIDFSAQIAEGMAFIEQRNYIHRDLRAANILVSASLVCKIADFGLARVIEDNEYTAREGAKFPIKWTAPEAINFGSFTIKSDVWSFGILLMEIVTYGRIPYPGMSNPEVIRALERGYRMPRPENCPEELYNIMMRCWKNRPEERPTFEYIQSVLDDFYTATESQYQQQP
Sequence of Mitogen-activated protein kinase 3 (P27361 whole entry): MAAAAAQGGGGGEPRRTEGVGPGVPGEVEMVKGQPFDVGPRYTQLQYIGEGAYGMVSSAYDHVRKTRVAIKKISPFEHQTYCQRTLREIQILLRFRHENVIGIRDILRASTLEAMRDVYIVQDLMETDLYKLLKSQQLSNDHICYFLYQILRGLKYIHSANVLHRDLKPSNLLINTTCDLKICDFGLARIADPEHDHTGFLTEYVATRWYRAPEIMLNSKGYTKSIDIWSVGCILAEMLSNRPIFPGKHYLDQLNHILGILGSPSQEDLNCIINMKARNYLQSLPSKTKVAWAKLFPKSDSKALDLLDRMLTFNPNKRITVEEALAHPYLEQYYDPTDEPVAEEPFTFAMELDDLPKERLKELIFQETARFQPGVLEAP

Usually Kd stands for the concentration at which binding is half-saturated. As for `C[C@@H](Nc1cc(F)cc(F)c1)c1cc(C(=O)N(C)C)cc2c(=O)cc(N3CCOCC3)oc12` [AZD-8186], the Kd (in assay [1]; at Activin receptor type-1; at Activin receptor type-1B; on Aurora kinase B; in assay [2]; in assay [3]) was > 30 µM (inactive) throughout. Also, the Kd (in assay [4]; in assay [5]; in assay [6]; on Midasin; in assay [7]; in assay [8]) was > 30 µM (inactive) in each case. In addition, the Kd (in assay [9]; at TGF-beta receptor type-2) was > 30 µM (inactive) each time.
In the case of `COc1cc(OC)c(/C=C/S(=O)(=O)Cc2ccc(OC)c(NCC(=O)O)c2)c(OC)c1` [RIGOSERTIB], the Kd (on Activin receptor type-1; at Activin receptor type-1B; at Aurora kinase B; in assay [2]; in [3]; in assay [4]) was > 30 µM (inactive) each time. The Kd (in [5]; in assay [6]; at Midasin; in assay [7]; in [8]; in [9]) was > 30 µM (inactive) each time. Besides, the Kd on TGF-beta receptor type-2 is > 30 µM (inactive).
Turning to `CC[C@H](Nc1ncnc2[nH]cnc12)c1nc2cccc(F)c2c(=O)n1-c1ccccc1` [IDELALISIB], the Kd (in assay [1]; on Activin receptor type-1; on Activin receptor type-1B; at Aurora kinase B; in assay [2]; in [3]) was > 30 µM (inactive) throughout. Further, the Kd (in assay [4]; in [5]; in assay [6]; on Midasin; in assay [7]; in assay [8]) was > 30 µM (inactive) in each case. Moreover, the Kd (in assay [9]; at TGF-beta receptor type-2) was > 30 µM (inactive) in each case.
Consider `CN1N=C(N)c2cn([C@@H]3O[C@H](COP(=O)(O)O)[C@@H](O)[C@H]3O)c3ncnc1c23` [TRICIRIBINE PHOSPHATE], for which the Kd (in assay [1]; on Activin receptor type-1; at Activin receptor type-1B; at Aurora kinase B; in assay [2]; in assay [3]) was > 30 µM (inactive) each time. In addition, the Kd (in [4]; in [5]; in assay [6]; at Midasin; in [7]; in assay [8]) was > 30 µM (inactive) in each case. The Kd (in assay [9]; on TGF-beta receptor type-2) was > 30 µM (inactive) in each case.
Turning to `Cc1ccc(-n2nc(C(C)(C)C)cc2NC(=O)NCc2cc(F)ccc2Oc2ccc3c(cnn3CCO)c2)cc1` [PEXMETINIB], the Kd (at Activin receptor type-1; on Activin receptor type-1B; on Aurora kinase B; in assay [2]; in [3]; in [4]) was > 30 µM (inactive) in each case. In addition, the Kd in assay [5] was 0.067 µM (active); in [6], > 30 µM (inactive); on Midasin it was > 30 µM (inactive); in assay [7], > 30 µM (inactive); in assay [8] it was > 30 µM (inactive); in [9] it was > 30 µM (inactive). The Kd at TGF-beta receptor type-2 was > 30 µM (inactive).
In the case of `COc1cc2nccc(Oc3ccc(NC(=O)NC4CC4)c(Cl)c3)c2cc1C(N)=O` [LENVATINIB], the Kd was > 30 µM (inactive) in [1]; > 30 µM (inactive) on Activin receptor type-1; > 30 µM (inactive) at Activin receptor type-1B; 1.78 µM (active) on Aurora kinase B; > 30 µM (inactive) in [2]; > 30 µM (inactive) in [3]. The Kd in assay [4] is > 30 µM (inactive); in assay [5], 0.063 µM (active); in [6] it was > 30 µM (inactive); at Midasin, > 30 µM (inactive); in assay [7] it was > 30 µM (inactive); in assay [8], > 30 µM (inactive). Further, on TGF-beta receptor type-2, the Kd was > 30 µM (inactive).
In the case of `CCn1c(=O)c(-c2cc[nH]n2)cc2c(C)nc(N)nc21` [VOXTALISIB], the Kd (in assay [1]; at Activin receptor type-1; on Activin receptor type-1B; at Aurora kinase B; in assay [2]; in assay [3]) was > 30 µM (inactive) each time. For the same compound, the Kd (in [4]; in assay [5]; in assay [6]; at Midasin; in assay [7]; in assay [8]) was > 30 µM (inactive) in each case. For the same compound, in assay [9], the Kd is > 30 µM (inactive).
With `Cc1c(F)cc(C(=O)NC2CC2)cc1-c1ccc(C(=O)NCC(C)(C)C)cn1` [LOSMAPIMOD], the Kd (at Activin receptor type-1; on Activin receptor type-1B; on Aurora kinase B; in assay [2]; in assay [3]; in assay [4]) was > 30 µM (inactive) each time. In addition, the Kd is 0.027 µM (active) in assay [5]; > 30 µM (inactive) in assay [6]; > 30 µM (inactive) at Midasin; > 30 µM (inactive) in [7]; 49.3 µM (active) in [8]; > 30 µM (inactive) in assay [9]. The Kd on TGF-beta receptor type-2 is > 30 µM (inactive).
`O=C1NC(=O)/C(=C/c2ccc3nccc(-c4ccncc4)c3c2)S1` [GSK-1059615]: the Kd (in [1]; on Activin receptor type-1; on Activin receptor type-1B; at Aurora kinase B; in [2]; in assay [3]) was > 30 µM (inactive) throughout. Further, the Kd in assay [4], in assay [5], in assay [6], in assay [7], in assay [8] and in assay [9] was > 30 µM (inactive) each time. Further, at TGF-beta receptor type-2, the Kd was > 30 µM (inactive).
